Laboratory results from US9532988B2, “Pharmaceutical composition comprising a TRPA1 antagonist and an analgesic agent” (GLENMARK PHARMACEUTICALS S.A., priority 2013, dated 2017).
Where a name gives a salt, the structure may show the parent alone.

How the values were obtained:
[1] = test system: Monosodium Iodo Acetate (MIA)-osteoarthritis induced weight bearing deficit in male SD rats; experiment: MIA-osteoarthritis induced weight bearing deficit (incapacitance meter); assay type: in vivo, rat (Sprague-Dawley); conditions: 0.5-4 h post-dose, Example 3, Table 5, FIG. 5
Experimental: After recording basal weight borne by both hind limbs (naïve) using the incapacitance meter (IITC Inc), rats were briefly anaesthetized with 2% isoflurane and O2 mixture and given intraarticular (i.a.) injection of MIA (5 mg per rat in […]) through the intrapatellar ligament of the left knee (Combe et al., 2004). MIA was dissolved in 0.9% sterile saline and administered using a 26½ gauge needle. Contralateral knees were injected intra-articularly with 50 μl of 0.9% sterile saline. Weight bearing deficit in ipsilateral paw was assessed 20 h post MIA injection by measuring weight borne by both hind limbs.
On the day of the experiment (20 h after MIA injection), rats were evaluated for pre-dose weight bearing deficit to assess the effect of MIA. After regrouping the rats after randomization, the pre- & post-dose weight bearing deficit, was assessed for both hind limbs. Rats were orally dosed with vehicle, naproxen, compound I potassium salt and combination (Naproxen+Compound I—simultaneously). The effect of compound I, naproxen and their combination, in MIA-osteoarthritis induced weight bearing deficit in male SD rats, was evaluated using Incapacitance meter (IITC Inc.) fitted with a perspex chamber designed so that each hind paw rat rests on separate transducer pads to record animal's weight on each paw. […] The % reversal of weight bearing deficit was calculated as per standard procedure. […]

[2] = test system: Streptozotocin (STZ)-induced diabetic peripheral neuropathic hyperalgesia in male SD rats; experiment: Streptozotocin-induced diabetic peripheral neuropathic hyperalgesia; assay type: in vivo, rat (Sprague-Dawley)
Experimental: (§1) Streptozotocin (STZ)-induced neuropathic hyperalgesia in rats is a model to screen potential therapeutics for diabetic painful neuropathy in human patients. Streptozotocin was dissolved in freshly prepared cold citrate buffer (0.1 M, pH—4.4). Diabetes was induced in overnight fasted male SD rats (weighing 250-300 g) by a single intraperitoneal injection of Streptozotocin (Sigma, 55 mg/kg, i.p). […] On the day of the experiment (13th day after STZ injection) rats were assessed for mechanical hyperalgesia using Randall-Sellito paw pressure analgesymeter. Animals were weighed and grouped as described in Table 9.
Rats were orally dosed with vehicle, duloxetine hydrochloride, Compound I potassium salt and combination (Duloxetine+Compound I).
as §1, with “pH —4.4).” for “pH—4.4).”, “Sprague Dawley” for “SD”, “rats” for “rats (weighing 250-300 g)”, “analgesymeter.” for “analgesymeter. Animals were weighed and grouped as described in Table 9.”
Rats were orally dosed with vehicle, different doses of duloxetine hydrochloride, Compound II disodium salt and combinations (duloxetine+Compound II—simultaneously). The post-dose paw withdrawal thresholds were measured at 1, 2 & 4 h after oral administration. […] Animals were weighed and grouped as described in Table 16.
Rats were orally dosed with vehicle, different doses of duloxetine hydrochloride, Compound III disodium salt and combinations (duloxetine+Compound III—simultaneously). […] Animals were weighed and grouped as described in Table 21.

[3] = test system: CCI-induced neuropathic hyperalgesia in male SD rats; experiment: Chronic constriction injury (CCI)-induced mechanical hyperalgesia; assay type: in vivo, rat (Sprague-Dawley); conditions: 0.5-4 h post-dose, Example 8, Table 11, FIG. 12
Experimental: The objective of this experiment was to study the combinational effect of Compound I and pregabalin in CCI-induced neuropathic hyperalgesia in male SD rats. Male SD rats weighing 180-220 g were grouped according to Table 11. Rats were anesthetized using ketamine/xylazine (40/5 mg/kg, i.p.) and the left sciatic nerve was exposed at mid-thigh level through a small incision. Four loose ligatures of 4-0 chromic cat gut at 1 mm space were placed around the sciatic nerve after the bifurcation of common sciatic nerve. After 6-7 days, mechanical hyperalgesia was assessed by measuring hind paw withdrawal thresholds to an increasing pressure (g) stimulus, using the Randall-Sellitto analgesymeter (Ugo Basile, Italy), fitted with a wedge-shaped probe.
Rats were orally dosed with vehicle, pregabalin, Compound I potassium salt and combination (Pregabalin+Compound I).

[4] = test system: Freund's Complete Adjuvant (FCA)-induced inflammatory mechanical hyperalgesia in male SD rats; experiment: FCA-induced inflammatory mechanical hyperalgesia (Randall-Sellitto paw pressure);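 note: left hind paw withdrawal threshold (g) to rising pressure on an analgesymeter, FCA injected intraplantar 24 h earlier, thresholds taken before and 0.5, 1, 2 and 4 h after oral dosing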
Experimental: Materials: FCA containing 1 mg/ml of heat killed and dried Mycobacterium tuberculosis (H37RA strain) emulsified in mineral oil and mannide mono-oleate; Male SD rats weighing 170-220 g; Paw Pressure Analgesymeter (37215, Ugo Basile, Comerio, Italy); Compound I potassium; and Diclofenac sodium
Naïve withdrawal thresholds of the left hind paw to an increasing pressure (g) stimulus were measured in rats using the analgesymeter. FCA was injected (30 μl) into the plantar region of left paw of rats to induce the inflammatory hyperalgesia. Mechanical hyperalgesia (24 h after FCA injection) was assessed by measuring hind paw withdrawal thresholds.
The post-dose paw withdrawal thresholds were measured at 0.5, 1, 2 & 4 h after oral administration. The percentage (%) reversal of mechanical hyperalgesia was calculated as per standard procedure.
Naïve withdrawal thresholds of the left hind paw to an increasing pressure (g) stimulus were measured in rats using the analgesymeter. Freund's Complete Adjuvant (FCA) was injected (30 μl) into the plantar region of left paw of rats to induce the inflammatory hyperalgesia. Mechanical hyperalgesia (24 h after FCA injection) was assessed both pre- & post-dosing of drugs by measuring hind paw withdrawal thresholds. […] The post-dose paw withdrawal thresholds were measured at 0.5, 1, 2 & 4 h after oral administration. The % reversal of mechanical hyperalgesia was calculated.
Naïve withdrawal thresholds of the left hind paw to an increasing pressure (g) stimulus were measured in rats using the analgesymeter.

[5] = test system: Spinal nerve ligation (SNL) injury-induced neuropathic hyperalgesia in male SD rats; experiment: Spinal nerve ligation (SNL)-induced mechanical hyperalgesia; assay type: in vivo, rat (Sprague-Dawley); conditions: 0.5-4 h post-dose, Example 15, Table 18, FIG. 20
Experimental: Spinal nerve ligation (SNL) injury in rats induces neuropathic mechanical hyperalgesia in this Chung's model. Rats were anesthetized using ketamine/xylazine (40/5 mg/kg, i.p.) and a 2-3 cm longitudinal incision was made in the lumbar spinal region, 5-6 mm lateral to the midline and above the lower lumbar vertebrae and the rostral sacrum, exposing the paraspinal muscles on the left side. The paraspinal muscles were isolated using blunt-tipped scissors for exposing L6 transverse process. The L6 transverse process was cut with the help of blunt-tipped scissor to visualize the left L5 spinal nerves. The nerves were cleaned from adhering tissue and were tightly ligated using 7.0 silk sutures (EP 1.5, Pearsalls Ltd) (Somerset, UK). The wound was closed with muscle & skin sutures and Povidone-iodine solution was applied every day till complete healing. […] Mechanical hyperalgesia was assessed by measuring hind paw withdrawal to an increasing pressure (g) stimulus, using an analgesymeter (Ugo Basile, Italy) fitted with a wedge-shaped probe.
Mechanical hyperalgesia was assessed both pre- & post-dosing of drugs by measuring hind paw withdrawal thresholds. […] The post-dose paw withdrawal thresholds were measured at 0.5, 1, 2 & 4 h after oral administration. The % reversal of mechanical hyperalgesia was calculated as per standard procedure.

[6] = test system: motor coordination in rotarod test in male SD rats; experiment: Motor coordination in rotarod test; assay type: in vivo, rat (Sprague-Dawley)
Experimental: FIG. 9 is a bar graph that represents effect of Compound I (3 mg/kg), thiocolchicoside (0.01 mg/kg) and their combination on motor coordination in rotarod test in male SD rats.
FIG. 19 is a bar graph that represents effect of combination of thiocolchicoside (0.01 mg/kg) and Compound II (0.13 mg/kg) and their combination on motor coordination in rotarod test in male SD rats.

[7] = test system: FCA-induced thermal hyperalgesia in male SD rats; experiment: FCA-induced thermal hyperalgesia (Hargreaves apparatus); assay type: in vivo, rat (Sprague-Dawley); conditions: diclofenac sodium 6 mg/kg p.o. alone; 0.5-4 h post-dose; Example 16, Table 19, FIG. 22
Experimental: The % reversal of mechanical/thermal hyperalgesia was calculated.

[8] = test system: MIA-osteoarthritis induced mechanical punctate allodynia in male SD rats; experiment: MIA-induced mechanical punctate allodynia (dynamic von Frey); assay type: in vivo, rat (Sprague-Dawley); conditions: naproxen 3 mg/kg p.o. alone; 0.5-4 h post-dose; Example 19, Table 22, FIG. 25
Experimental: MIA was dissolved in 0.9% sterile saline and administered using a 26½ gauge needle. Contralateral knees were injected intra-articularly with 50 μl of 0.9% sterile saline. On the day of the experiment (20 h after MIA injection), rats were evaluated for pre-dose mechanical punctate allodynia to assess the effect of MIA. After regrouping the rats after randomization, the pre- & post-dose mechanical allodynia was assessed for both hind paws. […] The % reversal of punctate allodynia was calculated as per standard procedure. Animals were weighed and grouped as described in Table 22.

Structure (SMILES): Cn1c(=O)c2c(CC(=O)Nc3nc(-c4ccc(F)c(C(F)(F)F)c4F)cs3)csc2n(C)c1=O [Compound I, N-{4-[2,4-difluoro-3-(trifluoromethyl)phenyl]-1,3-thiazol-2-yl}-2-(1,3-dimethyl-2,4-dioxo-1,2,3,4-tetrahydrothieno[2,3-d]pyrimidin-5-yl)acetamide]
- maximal % reversal of weight bearing deficit ([1]; Compound I 1 mg/kg p.o. alone): 8%
- maximal % reversal of hyperalgesia ([2]; Compound I 1 mg/kg p.o. alone, Example 7, Table 10, FIG. 11): 10%
- maximal % reversal of hyperalgesia ([2]; Compound I 3 mg/kg p.o. alone, 0.5-4 h post-dose, Example 7, Table 9, FIG. 10): 26%
- maximal % reversal of hyperalgesia ([3]; Compound I 3 mg/kg p.o. alone): 22%
- maximal % reversal of hyperalgesia ([4]; Compound I 1 mg/kg p.o. alone, Example 1, Table 2, FIG. 2): 15%
- maximal % reversal of hyperalgesia ([4]; Compound I 1 mg/kg p.o. alone, Example 2, Table 4, FIG. 4): 10%
- maximal % reversal of hyperalgesia ([4]; Compound I 3 mg/kg p.o. alone, 0.5-4 h post-dose, Example 1, Table 1, FIG. 1): 21%
- maximal % reversal of hyperalgesia ([4]; Compound I 3 mg/kg p.o. alone, Example 2, Table 3, FIG. 3): 25%
- maximal % reversal of hyperalgesia ([4]; Compound I 3 mg/kg p.o. alone, Example 4, Table 6, FIG. 6): 21%
- maximal % reversal of hyperalgesia ([4]; Compound I 3 mg/kg p.o. alone, Example 5, Table 7, FIG. 7): 25%
- maximal % reversal of hyperalgesia ([4]; Compound I 3 mg/kg p.o. alone, Example 6, Table 8, FIG. 8): 17%

Structure (SMILES): Cn1nc2c(c1CC(=O)N=c1scc(-c3ccc(F)c(C(F)(F)F)c3F)n1COP(=O)(O)O)c(=O)n(C)c(=O)n2C [Compound II, 4-(2,4-difluoro-3-(trifluoromethyl)phenyl)-2-((2-(2,5,7-trimethyl-4,6-dioxo-4,5,6,7-tetrahydro-2H-pyrazolo[3,4-d]pyrimidin-3-yl)acetyl)imino)thiazol-3 (2H)-yl)methyl dihydrogen phosphate]
- maximal % reversal of hyperalgesia ([2]; Compound II 0.04 mg/kg p.o. alone, 1, 2 & 4 h post-dose, Example 13, Table 16, FIG. 17): 13%
- maximal % reversal of hyperalgesia ([5]; Compound II 0.13 mg/kg p.o. alone): 18%
- motor deficits (rotarod) ([6]; Compound II 0.13 mg/kg alone, n=8, Example 14, FIG. 19): did not produce any motor deficits
- maximal % reversal of hyperalgesia ([4]; Compound II 0.13 mg/kg p.o. alone, Example 9, Table 12, FIG. 13): 21%
- maximal % reversal of hyperalgesia ([4]; Compound II 0.13 mg/kg p.o. alone, Example 10, Table 13, FIG. 14): 22%
- maximal % reversal of hyperalgesia ([4]; Compound II 0.13 mg/kg p.o. alone, Example 11, Table 14, FIG. 15): 14%
- maximal % reversal of hyperalgesia ([4]; Compound II 0.13 mg/kg p.o. alone, Example 12, Table 15, FIG. 16): 22%
- maximal % reversal of hyperalgesia ([4]; Compound II 0.13 mg/kg p.o. alone, Example 14, Table 17, FIG. 18): 14%

Structure (SMILES): O=C(O)Cc1ccccc1Nc1c(Cl)cccc1Cl [diclofenac sodium]
- maximal % reversal of thermal hyperalgesia [7]: 27%
- maximal % reversal of hyperalgesia ([4]; diclofenac sodium 6 mg/kg p.o. alone, 0.5-4 h post-dose, Example 1, Table 1, FIG. 1): 15%
- maximal % reversal of hyperalgesia ([4]; diclofenac sodium 6 mg/kg p.o. alone, Example 9, Table 12, FIG. 13): 14%
- maximal % reversal of mechanical hyperalgesia ([4]; diclofenac sodium 6 mg/kg p.o. alone, Example 16, Table 19, FIG. 21): 23%
- maximal % reversal of hyperalgesia ([4]; diclofenac sodium 8 mg/kg p.o. alone, Example 1, Table 2, FIG. 2): 39%

Structure (SMILES): CNCC[C@H](Oc1cccc2ccccc12)c1cccs1 [duloxetine hydrochloride]
- maximal % reversal of hyperalgesia ([2]; duloxetine hydrochloride 3 mg/kg p.o. alone, 0.5-4 h post-dose, Example 7, Table 9, FIG. 10): 23%
- maximal % reversal of hyperalgesia ([2]; duloxetine hydrochloride 3 mg/kg p.o. alone, 0.5-4 h post-dose, Example 18, Table 21, FIG. 24): 20%
- maximal % reversal of hyperalgesia ([2]; duloxetine hydrochloride 3 mg/kg p.o. alone, 1, 2 & 4 h post-dose, Example 13, Table 16, FIG. 17): 17%
- maximal % reversal of hyperalgesia ([2]; duloxetine hydrochloride 10 mg/kg p.o. alone, Example 7, Table 10, FIG. 11): 35%

Structure (SMILES): Cc1cnc(NC(=O)C2=C(O)c3ccccc3S(=O)(=O)N2C)s1 [meloxicam]
- maximal % reversal of hyperalgesia ([4]; meloxicam 0.5 mg/kg p.o. alone, Example 4, Table 6, FIG. 6): 21%
- maximal % reversal of hyperalgesia ([4]; meloxicam 0.5 mg/kg p.o. alone, Example 11, Table 14, FIG. 15): 19%

Structure (SMILES): COc1ccc2cc([C@H](C)C(=O)O)ccc2c1 [naproxen]
- maximal % reversal of weight bearing deficit ([1]; naproxen 10 mg/kg p.o. alone): 39%
- maximal % reversal of mechanical punctate allodynia [8]: 18%
- maximal % reversal of hyperalgesia ([4]; naproxen 3 mg/kg p.o. alone, Example 2, Table 3, FIG. 3): 23%
- maximal % reversal of hyperalgesia ([4]; naproxen 3 mg/kg p.o. alone, Example 10, Table 13, FIG. 14): 18%
- maximal % reversal of mechanical hyperalgesia ([4]; naproxen 3 mg/kg p.o. alone, Example 17, Table 20, FIG. 23): 17%
- maximal % reversal of hyperalgesia ([4]; naproxen 5 mg/kg p.o. alone, Example 2, Table 4, FIG. 4): 32%

Structure (SMILES): CC(=O)Nc1ccc(O)cc1 [paracetamol]
- maximal % reversal of hyperalgesia ([4]; paracetamol 60 mg/kg p.o. alone, Example 5, Table 7, FIG. 7): 28%
- maximal % reversal of hyperalgesia ([4]; paracetamol 60 mg/kg p.o. alone, Example 12, Table 15, FIG. 16): 17%

Structure (SMILES): CC(C)C[C@H](CN)CC(=O)O [pregabalin]
- maximal % reversal of hyperalgesia ([3]; pregabalin 1 mg/kg p.o. alone): 14%
- maximal % reversal of hyperalgesia ([5]; pregabalin 1 mg/kg p.o. alone): 20%

Structure (SMILES): COc1c(O[C@@H]2O[C@H](CO)[C@@H](O)[C@H](O)[C@H]2O)cc2c(c1OC)-c1ccc(SC)c(=O)cc1[C@@H](NC(C)=O)CC2 [thiocolchicoside]
- motor deficits (rotarod) ([6]; thiocolchicoside 0.01 mg/kg alone, Example 6, FIG. 9): did not produce any motor deficits
- motor deficits (rotarod) ([6]; thiocolchicoside 0.01 mg/kg alone, n=8, Example 14, FIG. 19): did not produce any motor deficits
- maximal % reversal of hyperalgesia ([4]; thiocolchicoside 0.01 mg/kg p.o. alone, Example 6, Table 8, FIG. 8): 15%
- maximal % reversal of hyperalgesia ([4]; thiocolchicoside 0.01 mg/kg p.o. alone, Example 14, Table 17, FIG. 18): 14%
